Source: US8173610B2 (priority 2005, dated 2012)
Where two headings read alike, the source gives them in different places.

Key:
[1] = system: HCV subgenomic replicon; experiment: Anti-HCV activity in HCV subgenomic replicon system (Huh7 cells, firefly luciferase); details: for Therapeutic Index in HCV replicon system CC50/IC50: Huh7 HCV replicon system
Method: The antiviral (anti-HCV) activity of epirubicin and its derivatives was tested in vitro in cell culture model using the HCV subgenomic replicon stably transfected into Huh7 cells line (clone BM4.5) (Gao et al., J. Virol. 2001) and/or in Huh7 cells replicating selectable subgenomic HCV replicon carrying firefly luciferase gene (Vrolijk et al. J. Virol. Method. 2003).
The BM4.5 Huh7 cells were grown in cell culture medium in presence of varying concentrations of epirubicin hydrochloride (BNE00) or epirubicin derivatives. The media and drug were changed everyday for 5 days. After 5 days of treatment cells were lysed and total RNA extracted as described (Gao et al., J. Virol. 2001). The isolated RNA was then assayed for presence of HCV replication by Northern Blot analysis, using a HCV probe targeting the NS5B region of HCV. […] The cell lines were treated everyday with different epirubicin hydrochloride (BNE00) or epirubicin derivatives concentrations for 5 days and at the end of treatment, the RNA from the treated cells were isolated. The total RNA was then probed with a HCV specific probe using Northern blot analysis to detect the HCV RNA. The resulting blot was then exposed to phosphorimager densitometry and the viral replication quantified.
For Huh7 cells replicating selectable subgenomic HCV replicon carrying firefly luciferase gene cells were treated with epirubicin hydrochloride (BNE00) or epirubicin derivatives as described above for BM4,5 cells. Following the treatment, cells were lysed and firefly luciferase activity was measured using Luminoskan device (Thermolabsystem) as described (Vrolijk et al. J. Virol. Methods. 2003).

[2] = system: HCV; experiment: Inhibition of HCV replication in chronically HCV-infected human PBMC (RT-PCR); details: for IC50: read-out: Anti-HCV activity in PBMC IC50; for IC90: read-out: Anti-HCV activity in PBMC IC90
Method: In addition, the inhibition of HCV replication by epirubicin hydrochloride (BNE00), N3′-acetylepirubicin (BNE01), and N3′,O4′,O14-triacetylepirubicin (BNE02) were analyzed in chronically HCV-infected human peripheral blood monocyte cells (PBMC) cultures which was performed as follows. PBMC were isolated from HCV-infected patients blood by Ficoll Pague centrifugation placed on Petri dishes and cultured in 10% FCS, RPMI medium containing PHA (3 μg/ml) according to Laskus et al. (J Infect Dis. 2000) and enriched with known concentrations of BNE00, BNE01, BNE02 in standard conditions (37° C., 5% CO2). On day 5 and 14 of the culture the cells were collected and after extraction, HCV RNA was […] estimated by real-time Reverse Transcriptase Polymerase Chain Reaction using SYBR Green system (FIG. 3). Semiquantitative estimation of HCV RNA was also performed by Reverse Transcriptase Polymerase Chain Reaction, and visualized after electrophoresis through a 1% agarose gel, using ethidium bromide staining (FIG. 4).

[3] = in vivo; details: both, BALB/C, mouse, ip
Method: (§1) The in vivo determination of acute toxicity of drugs was performed in mice according to “OECD Guidelines for Testing of Chemicals” (Guideline No 401). The study was performed in BALB/C mice and the test substance was administrated intraperitoneally in dose of 1; 5 and 10 mg/kg b.w. Ten males and 10 females were used for each dose. A control group receiving only solvent was run concurrently.

[4] = in vitro; details: human
[5] = Cytotoxic activity in Huh7 cells replicating the HCV replicon; details: human
[6] = system: PBMC
[7] = system: BALB/C mice; experiment: In vivo acute toxicity in mice (OECD Guideline No 401)
Method: as §1

[8] = system: Huh7 cells; experiment: Cytotoxic activity in Huh7 cells replicating the HCV replicon; details: read-out: Cytotoxic activity in Huh7 Cells, CC50; Huh7 cells replicating subgenomic HCV replicon carrying firefly luciferase gene
[9] = Hepatitis C virus, PBMC, in Homo sapiens
[10] = chronically HCV-infected human PBMC
[11] = read-out: Anti-HCV activity in HCV replicon system IC50, Huh7 cells, subgenomic HCV replicon carrying firefly luciferase gene

SMILES	IC50 ([1]; Hepatitis C virus, Huh-7, read-out: Anti-HCV activity in HCV replicon system IC50) [nM]	IC50 ([1]; Hepatitis C virus, Huh-7, read-out: anti-HCV IC50) [nM]	Therapeutic Index in HCV replicon system CC50/IC50 [1]	IC50 [2, 9] [nM]	IC90 [2, 9] [nM]	Therapeutic Index in PBMC TI50 CC50/IC50 [2, 10]	LD50 [3] [mg/kg]	CC50 [4] [nM]	CC90 [4] [nM]	CC50 [5] [nM]	IC50 [2, 10] [nM]	IC90 [2, 10] [nM]	CC50 [6] [nM]	CC90 [6] [nM]	IC50 [1, 11] [nM]	LD50 (in vivo acute toxicity) ([7]; BALB/C mice, intraperitoneal) [mg/kg b.w.]	fold lower acute toxicity compared with epirubicin hydrochloride (BNE00) ([7]; LD50 ratio, mice) [fold]	CC50 [8] [nM]
COc1cccc2c1C(=O)c1c(O)c3c(c(O)c1C2=O)C[C@@](O)(C(=O)CO)C[C@@H]3O[C@H]1C[C@H](N)[C@@H](O)[C@H](C)O1 [BNE00, 7-O-(3′-amino-2′,3′,6′-trideoxy-α,β-L-arabinohexopyranosyl)-adriamycinone, reference compound]	2	2 to 4	1.5	320	460	5.62	26.2	1800	2400	3	–	–	–	–	–	–	–	–
COc1cccc2c1C(=O)c1c(O)c3c(c(O)c1C2=O)C[C@@](O)(C(=O)CO)C[C@@H]3O[C@H]1C[C@@H](NC(C)=O)[C@H](O)[C@H](C)O1 [BNE01, N3′-acetyl-4′-epidoxorubicin]	–	–	–	–	–	91.7	–	–	–	–	360	470	33000	91000	–	–	–	–
COc1cccc2c1C(=O)c1c(O)c3c(c(O)c1C2=O)CC(O)(C(=O)COC(C)=O)CC3OC1CC(NC(C)=O)C(OC(C)=O)C(C)O1 (stereo not shown) [BNE02, N3′, O4′, O14-triacetyl-4′-epidoxorubicin]	–	–	10	–	–	>490.0	–	–	–	–	< 100	500	49000	120000	500	1355.08	52	5000
COc1cccc2c1C(=O)c1c(O)c3c(c(O)c1C2=O)CC(O)(C(=O)CO)CC3OC1CC(N(C)C)C(O)C(C)O1 (stereo not shown) [BNE06, 3′-N,N-Dimethyl-4′-epidoxorubicin]	–	–	3.0	–	–	–	–	–	–	–	–	–	–	–	18	–	–	60
